Test results reported in patent US20060110356A1, “Ophthalmic drug delivery system using polymer micelle” (NANOCARRIER KABUSHIKI KAISHA, priority 2003, published 2006).

How the values were obtained:
skin = conditions: rat, in vivo, iv
Method: As a comparative control, Photofrin was administered under the same condition.
Four hours after the administration, a xenon lamp was irradiated on the shaved part (wavelength: 377-700 nm, power density: 30 mW/cm^2, irradiation area: 4 cm^2).

[1] = tested on: choroidal neovascular (CNV) model; assay: Intraocular transfer of fluorescent-labelled PIC micelle in rat CNV model (fluorescence microscopy of frozen sections); type: in vivo, BN rat; conditions: intravenous, 400 μL of 5 mg/mL in physiological saline
Method: A diblock copolymer having polyethylene glycol (PEG) as a hydrophilic polymer chain, and polyaspartic acid (P(Asp)) as an anionic polymer chain within one molecule was dispersed in water, and mixed with FITC-labelled polylysine (FITC-P(Lys)) to prepare a core-shell type PIC micelle solution (5 mg/mL) having a core of a polylon complex (PIC) consisting of P(Asp) and FITC-P(Lys), and a shell of PEG.
After generally anesthetizing a BN rat by intramuscular administration of 1 mL/kg of a mixture of a 5% ketamine hydrochloride injection and a 2% xylazine hydrochloride injection (7:1), eye drops of a 0.5% tropicamide-0.5% phenylephrine hydrochloride ophthalmic solution were administered to render mydriasis. Then, photocoagulation was carried out with a semiconductor laser photocoagulator. Photocoagulation was carried out on six scattering positions per one eye in a posterior portion of the ocular fundus while focusing on retinal deep layer (coagulation conditions: spot size 75 μm, output 200 mW, coagulation time 0.05 sec) such that irradiation of large retinal vessels was avoided. […]
Following administration, the eyeball was removed after a predetermined time, and a frozen tissue section was prepared. Thereafter, leakage of the fluorescence to the choroidal neovascular site was qualitatively observed by a fluorescence microscope.

Substance | photosensitive erethism on the skin (skin) | toxicity (death of animal) [1]
Photofrin | photosensitive erethism was found | –
FITC-labelled polylysine [FITC-P(Lys)] | – | the animal died one hour after the administration due to its toxicity
